# Assay results as given in US20260158017A1, “KIF18A INHIBITOR” (WIGEN BIOMEDICINE TECHNOLOGY (SHANGHAI) CO., LTD., priority 2021, published 2026).
# Target: T1, Recombinant human KIF18A (1-467His-tagged) protein (Homo sapiens, UniProt Q8NI77)
# T1 construct: Recombinant human KIF18A (1-467His-tagged) protein; His; made in house
# Experiment: KIF18A enzyme assay (microtubule-stimulated ATPase activity, ADP-Glo)
# Assay type: biochemical
# Conditions: 30 nM KIF18A, 75 μM ATP, 30 μg/mL pig microtubules; read-out: Inhibitory activity against KIF18A IC50
# Description: In Vitro Assay of the Compounds of the Present Invention for Inhibiting Enzymatic Activity of KIF18A
# KIF18A enzyme assay: The enzymatic activity of KIF18A after treatment with the compounds was measured by an assay of microtubule-stimulated ATPase activity. ADP generated from the ATPase reaction was measured in this assay. The compounds were serially diluted 2-fold in DMSO over a range of 22 concentration points. […] Concentrations of KIF18A protein, microtubules, and ATP in the reaction were optimized for a standardized homogenous enzyme assay using an ADP-Glo kinase/ATPase assay kit. A reaction buffer [(15 mM Tris, pH 7.5), 10 mM MgCl2, 0.01% PluronicF-68, 1 μM paclitaxel, and 30 μg/mL pig microtubules] was prepared. […] The resulting reaction mixture was incubated at room temperature for another 15 min. 5 μL of ADP-Glo reagent and 2.5 μL of the reaction mixture were mixed and the resulting mixture was incubated at room temperature for 40 min. 10 μL of ADP-Glo detection reagent was added and the mixture was incubated at room temperature for 40 min. Luminescence was read using a microplate reader and compared with that of the DMSO group, and then the inhibition percentages and IC50 values of the compounds were calculated.
# T1 sequence (Q8NI77 1-467): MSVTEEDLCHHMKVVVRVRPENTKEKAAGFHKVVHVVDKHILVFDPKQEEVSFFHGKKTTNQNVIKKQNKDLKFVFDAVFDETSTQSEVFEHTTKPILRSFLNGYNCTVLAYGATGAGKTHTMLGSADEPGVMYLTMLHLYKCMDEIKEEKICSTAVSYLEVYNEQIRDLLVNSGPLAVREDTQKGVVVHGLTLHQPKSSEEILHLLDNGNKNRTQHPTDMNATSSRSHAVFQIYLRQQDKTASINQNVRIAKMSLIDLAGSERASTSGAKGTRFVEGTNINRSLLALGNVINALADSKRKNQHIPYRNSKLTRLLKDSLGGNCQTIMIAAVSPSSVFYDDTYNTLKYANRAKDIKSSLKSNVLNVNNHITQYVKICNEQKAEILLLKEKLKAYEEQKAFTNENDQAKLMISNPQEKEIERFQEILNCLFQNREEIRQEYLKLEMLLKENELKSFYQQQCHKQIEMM
# T1 sequence (P02550 whole entry partner): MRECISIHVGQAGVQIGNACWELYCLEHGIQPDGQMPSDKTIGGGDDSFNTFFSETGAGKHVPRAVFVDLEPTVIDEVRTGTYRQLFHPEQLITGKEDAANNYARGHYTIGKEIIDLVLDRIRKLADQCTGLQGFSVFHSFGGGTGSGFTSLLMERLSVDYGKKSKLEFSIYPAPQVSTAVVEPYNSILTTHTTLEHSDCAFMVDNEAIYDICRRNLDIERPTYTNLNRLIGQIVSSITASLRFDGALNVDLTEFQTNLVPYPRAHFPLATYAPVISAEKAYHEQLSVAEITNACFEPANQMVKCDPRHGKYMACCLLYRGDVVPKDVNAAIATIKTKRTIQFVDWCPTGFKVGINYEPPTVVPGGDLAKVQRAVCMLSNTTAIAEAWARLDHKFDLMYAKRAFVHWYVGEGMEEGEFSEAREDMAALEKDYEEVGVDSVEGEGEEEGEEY
# T1 sequence (P02554 whole entry partner): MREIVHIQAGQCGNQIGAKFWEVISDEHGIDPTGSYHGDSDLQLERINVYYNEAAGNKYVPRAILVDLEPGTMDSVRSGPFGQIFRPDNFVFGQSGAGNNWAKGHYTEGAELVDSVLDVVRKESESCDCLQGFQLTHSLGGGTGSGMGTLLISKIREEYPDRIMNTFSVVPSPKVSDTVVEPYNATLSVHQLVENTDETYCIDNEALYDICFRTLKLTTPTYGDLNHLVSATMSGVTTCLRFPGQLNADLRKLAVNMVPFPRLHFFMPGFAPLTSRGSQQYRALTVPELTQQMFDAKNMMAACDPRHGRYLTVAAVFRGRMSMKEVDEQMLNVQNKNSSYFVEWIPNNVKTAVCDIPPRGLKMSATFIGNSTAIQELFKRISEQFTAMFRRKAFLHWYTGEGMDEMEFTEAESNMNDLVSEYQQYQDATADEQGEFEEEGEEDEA
row,IC50 [nM],Structure (SMILES)
1,≤ 100,O=C(Nc1ccc(OCF)c(OC2CCC2)c1)c1ccc(NS(=O)(=O)CCO)cc1N1CCC2(CC1)CC2 [Compound 391]
2,≤ 100,O=C(Nc1ccc(OCF)c(OC2CCC2)c1)c1cnc(NS(=O)(=O)CCO)cc1N1CCC2(CC1)CC2 [Compound 455]
3,≤ 100,O=C(Nc1ccc(NS(=O)(=O)CCO)cc1N1CCC2(CC1)CC2)c1ccc(OCF)c(N2CCC(F)(F)CC2)n1 [Compound 545]
4,≤ 100,C[C@H](CO)S(=O)(=O)Nc1cc(N2CCC3(CC2)CC3)c(C(=O)Nc2ccc(OCF)c(N3CCC(F)(F)CC3)n2)cn1 [Compound 494]
5,100 to 500,O=C(Nc1ccc(S(=O)(=O)NCCO)cc1N1CCC2(CC1)CC2)c1ccc(OCF)c(OCCC(F)(F)F)n1 [Compound 565]
6,100 to 500,C[C@H](CO)NS(=O)(=O)c1ccc(NC(=O)c2ccc(OCF)c(N3CCC(F)(F)CC3)n2)c(N2CCC3(CC2)CC3)c1 [Compound 574]
7,100 to 500,C[C@H]1CN(c2nc(C(=O)Nc3ccc(S(=O)(=O)NCCO)cc3N3CCC4(CC3)CC4)ccc2OCF)CCO1 [Compound 563]
8,≤ 100,O=C(Nc1ccc(OCF)c(N2CC(F)(F)C2)n1)c1cnc(NS(=O)(=O)CCO)cc1N1CCC2(CC1)CC2 [Compound 484]
9,≤ 100,CSc1ccc(NC(=O)c2cnc(NS(=O)(=O)CCO)cc2N2CCC3(CC2)CC3)nc1N1CCO[C@H](C)C1 [Compound 626]
10,≤ 100,C[C@@H]1CN(c2nc(NC(=O)c3cnc(S(=O)(=O)NCCO)cc3N3CCC4(CC3)CC4)ccc2OCF)CCO1 [Compound 498]
11,100 to 500,O=C(Nc1ccc(S(=O)(=O)NCCO)cc1N1CCC2(CC1)CC2)c1ccc(OCF)c(N2CCC(F)CC2)c1 [Compound 537]
12,≤ 100,O=C(Nc1ccc(OCF)c(OCCC(F)(F)F)n1)c1ccc(NS(=O)(=O)CCO)cc1N1CCC2(CC1)CC2 [Compound 421]
13,≤ 100,CC(C)(CO)Nc1nc(NC(=O)c2ccc(NS(=O)(=O)CCO)cc2N2CCC3(CC2)CC3)ccc1OCF [Compound 427]
14,≤ 100,O=C(Nc1ccc(OCF)c(N2CCC(F)CC2)n1)c1ccc(NS(=O)(=O)CCO)cc1N1CCC2(CC1)CC2 [Compound 425]
15,≤ 100,O=C(Nc1ccc(OCF)c(N2CC(F)(F)C2)c1)c1ccc(NS(=O)(=O)CCO)cc1N1CCC2(CC1)CC2 [Compound 388]
16,≤ 100,CSc1ccc(NC(=O)c2cnc(NS(=O)(=O)CCO)cc2N2CCC3(CC2)CC3)nc1N1CC(F)(F)C1 [Compound 628]
17,≤ 100,C[C@@H]1CN(c2cc(NC(=O)c3cnc(S(=O)(=O)NCCO)cc3N3CCC4(CC3)CC4)ccc2OCF)CCO1 [Compound 466]
18,≤ 100,C[C@@H]1CN(c2nc(NC(=O)c3cnc(NS(=O)(=O)[C@H](C)CO)cc3N3CCC4(CC3)CC4)ccc2OCF)CCO1 [Compound 496]
19,≤ 100,O=C(Nc1ccc(OCF)c(N2CC3CC3C2)n1)c1cnc(S(=O)(=O)NCCO)cc1N1CCC2(CC1)CC2 (stereo not shown) [Compound 506]
20,100 to 500,O=C(Nc1ccc(S(=O)(=O)NCCO)cc1N1CCC2(CC1)CC2)c1ccc(OCF)c(N2CCC(F)(F)CC2)c1 [Compound 529]
21,≤ 100,COc1ccc(C(=O)Nc2cnc(NS(=O)(=O)CCO)cc2N2CCC3(CC2)CC3)nc1N1CCOCC1 [Compound 364]
22,≤ 100,CC1(F)CCN(c2cc(NC(=O)c3ccc(NS(=O)(=O)CCO)cc3N3CCC4(CC3)CC4)ccc2OCF)C1 (stereo not shown) [Compound 392]
23,≤ 100,CSc1ccc(NC(=O)c2cnc(NS(=O)(=O)CCO)cc2N2CCC3(CC2)CC3)nc1N1CCC(F)(F)CC1 [Compound 625]

# The remaining lines, values behind:
row,Structure (SMILES),IC50 [nM]
1,C[C@H]1CN(c2cc(C(=O)Nc3cnc(S(=O)(=O)NCCO)cc3N3CCC4(CC3)CC4)ccc2[N+](=O)[O-])CCO1 [Compound 211],100 to 500
2,COc1ccc(NC(=O)c2cnc(NS(=O)(=O)[C@H](C)CO)cc2N2CCC3(CC2)CC3)nc1N1CCC(F)(F)CC1 [Compound 302],≤ 100
3,COc1ccc(NC(=O)c2cnc(NS(=O)(=O)CCO)cc2N2CCC3(CC2)CC3)nc1N1CCO[C@H](C)C1 [Compound 290],≤ 100
4,C[C@H](CO)NS(=O)(=O)c1cc(N2CCC3(CC2)CC3)c(NC(=O)c2ccc([N+](=O)[O-])c(N3CCO[C@H](C)C3)c2)cn1 [Compound 224],100 to 500
5,CC(C)(CO)Nc1cc(NC(=O)c2cnc(S(=O)(=O)NCCO)cc2N2CCC3(CC2)CC3)ccc1[N+](=O)[O-] [Compound 123],≤ 100
6,COc1ccc(NC(=O)c2cnc(NS(=O)(=O)CCO)cc2N2CCC3(CC2)CC3)nc1N1CCO[C@@H](C)C1 [Compound 291],≤ 100
7,CC1(F)CCN(c2cc(C(=O)Nc3cnc(S(=O)(=O)NCCO)cc3N3CCC4(CC3)CC4)ccc2[N+](=O)[O-])C1 (stereo not shown) [Compound 216],100 to 500
8,O=C(Nc1ccc(S(=O)(=O)NCCO)cc1N1CCC2(CC1)CC2)c1ccc([N+](=O)[O-])c(N2CCOCC2)c1 [Compound 60],100 to 500
9,CC1(F)CCN(c2cc(C(=O)Nc3cnc(NS(=O)(=O)CCO)cc3N3CCC4(CC3)CC4)ccc2[N+](=O)[O-])C1 (stereo not shown) [Compound 200],≤ 100
10,CC1(F)CCN(c2cc(NC(=O)c3ccc(S(=O)(=O)NCCO)cc3N3CCC4(CC3)CC4)ccc2[N+](=O)[O-])C1 (stereo not shown) [Compound 24],≤ 100
11,O=C(Nc1ccc([N+](=O)[O-])c(N2CCC3(CC3)C2)c1)c1cnc(NS(=O)(=O)CCO)cc1N1CCC2(CC1)CC2 [Compound 102],≤ 100
12,COc1ccc(NC(=O)c2ccc(NS(=O)(=O)CCO)cc2N2CCC3(CC2)CC3)nc1N1CCC(F)CC1 [Compound 265],≤ 100
13,C[C@H](CO)NS(=O)(=O)c1cc(N2CCC3(CC2)CC3)c(NC(=O)c2ccc([N+](=O)[O-])c(N3CCO[C@H](C)C3)n2)cn1 [Compound 256],100 to 500
14,C[C@H]1CN(c2nc(NC(=O)c3ccc(S(=O)(=O)NCCO)cc3N3CCC4(CC3)CC4)ccc2[N+](=O)[O-])CCO1 [Compound 83],≤ 100
15,C[C@H](CO)NS(=O)(=O)c1cc(N2CCC3(CC2)CC3)c(C(=O)Nc2ccc([N+](=O)[O-])c(N3CCC(F)(F)CC3)n2)cn1 [Compound 158],≤ 100
16,C[C@H](CO)S(=O)(=O)Nc1cc(N2CCC3(CC2)CC3)c(C(=O)Nc2ccc([N+](=O)[O-])c(N3CCC(F)(F)CC3)n2)cn1 [Compound 142],≤ 100
17,COc1ccc(NC(=O)c2ccc(S(=O)(=O)N[C@@H](C)CO)cc2N2CCC3(CC2)CC3)nc1N1CCO[C@H](C)C1 [Compound 287],≤ 100
18,COc1ccc(NC(=O)c2ccc(S(=O)(=O)N[C@@H](C)CO)cc2N2CCC3(CC2)CC3)nc1N1CCC(F)(F)CC1 [Compound 285],≤ 100

row,Structure (SMILES),IC50 [nM]
1,C[C@@H]1CN(c2nc(C(=O)Nc3cnc(NS(=O)(=O)CCO)cc3N3CCC4(CC3)CC4)ccc2[N+](=O)[O-])CCO1 [Compound 226],≤ 100
2,C[C@H]1CN(c2nc(NC(=O)c3ccc(NS(=O)(=O)CCO)cc3N3CCC4(CC3)CC4)ccc2[N+](=O)[O-])CCO1 [Compound 67],≤ 100
3,O=C(Nc1ccc(NS(=O)(=O)CCO)cc1N1CCC2(CC1)CC2)c1ccc([N+](=O)[O-])c(N2CC(F)(F)C2)n1 [Compound 164],≤ 100
4,O=C(Nc1cnc(NS(=O)(=O)CCO)cc1N1CCC2(CC1)CC2)c1ccc([N+](=O)[O-])c(OCCC(F)(F)F)c1 [Compound 197],≤ 100
5,O=C(Nc1ccc(S(=O)(=O)NCCO)cc1N1CCC2(CC1)CC2)c1ccc([N+](=O)[O-])c(N2CCC(F)(F)CC2)c1 [Compound 49],100 to 500
6,C[C@@H]1CN(c2cc(NC(=O)c3ccc(NS(=O)(=O)[C@@H](C)CO)cc3N3CCC4(CC3)CC4)ccc2[N+](=O)[O-])CCO1 [Compound 15],≤ 100
7,O=C(Nc1ccc([N+](=O)[O-])c(N2CC3CC3C2)n1)c1cnc(NS(=O)(=O)CCO)cc1N1CCC2(CC1)CC2 (stereo not shown) [Compound 138],≤ 100
8,C[C@H]1CN(c2nc(NC(=O)c3cnc(S(=O)(=O)NCCO)cc3N3CCC4(CC3)CC4)ccc2[N+](=O)[O-])CCO1 [Compound 147],≤ 100
9,COc1ccc(C(=O)Nc2ccc(NS(=O)(=O)CCO)cc2N2CCC3(CC2)CC3)nc1N1CCO[C@@H](C)C1 [Compound 323],≤ 100
10,COc1ccc(C(=O)Nc2ccc(S(=O)(=O)N[C@H](C)CO)cc2N2CCC3(CC2)CC3)nc1N1CCC(F)(F)CC1 [Compound 350],≤ 100
11,O=C(Nc1ccc(NS(=O)(=O)CCO)cc1N1CCC2(CC1)CC2)c1ccc([N+](=O)[O-])c(N2CC(F)(F)C2)c1 [Compound 36],≤ 100
12,CC1(F)CCN(c2cc(NC(=O)c3cnc(S(=O)(=O)NCCO)cc3N3CCC4(CC3)CC4)ccc2[N+](=O)[O-])C1 (stereo not shown) [Compound 120],≤ 100
13,COc1ccc(C(=O)Nc2ccc(S(=O)(=O)NCCO)cc2N2CCC3(CC2)CC3)nc1NC(C)(C)CO [Compound 347],≤ 100
14,COc1ccc(C(=O)Nc2cnc(NS(=O)(=O)CCO)cc2N2CCC3(CC2)CC3)nc1OC1CCC1 [Compound 359],≤ 100
15,C[C@H]1CN(c2cc(NC(=O)c3cnc(S(=O)(=O)NCCO)cc3N3CCC4(CC3)CC4)ccc2[N+](=O)[O-])CCO1 [Compound 115],≤ 100
16,CC(C)(CO)Nc1nc(C(=O)Nc2ccc(S(=O)(=O)NCCO)cc2N2CCC3(CC2)CC3)ccc1[N+](=O)[O-] [Compound 187],100 to 500
17,COc1ccc(C(=O)Nc2ccc(NS(=O)(=O)CCO)cc2N2CCC3(CC2)CC3)nc1N1CCO[C@H](C)C1 [Compound 322],≤ 100
